Experimental data from patent US20120121691A1, “Method for Increasing the Production of a Specific ACYL-Chain Dihydroceramide(s) for Improving the Effectiveness of Cancer Treatments” (priority 2010, published 2012).

Legend:
[1] = system: intracellular sphingolipids, CCRF-CEM cells; assay: LC/MS/MS analysis of intracellular sphingolipids, CCRF-CEM; format: cell-based, human; settings: for increase in corresponding dihydroceramide over sphinganine plus GT-11 alone: fatty acid in addition to sphinganine plus GT-11, six hours, P<0.05
Method: (§1) LC/MS/MS analysis of intracellular sphingolipids. Sphingolipids were separated using an Agilent 1200 HPLC (LC) and determined by ESI/MS/MS performed on a AB SCIEX 4000 QTRAP Hybrid Triple Quadrupole/Linear Ion Trap mass spectrometer (MS), operating in a multiple reaction monitoring positive ionization mode as described previously with moderate modifications (25). Briefly, 50 μL of a solution (1 μM) of internal sphingolipid standards (including -sphingosine, -sphinganine, -sphingosine-1-phosphate, and -ceramide) was added to each cell pellet sample. Lipids of each sample were extracted twice with 2 mL of the ethyl acetate/isopropyl alcohol/water (60:28:12; v:v) solvent system. Supernatants were transferred to glass tubes (Kimble Chase) and evaporated under air (10 PSI) at 40° C. After reconstitution in methanol (4 mL), 1 ml of each sample was separated for the determination of lipid phosphate. Remaining sample (3 mL) was dried and used for sphingolipid quantification. For ESI/MS/MS, the dried lipid sample was dissolved in mobile phase A. Samples were injected (10 μL) and separated on a Spectra C8SR, 150×3.0 mm, 3-μm particle size column using gradient-elution (mobile phase A/B, prepared as previously described).
(§2) Data acquisition, peak integration and analyte quantitation were performed using ABI/SCIEX Analyst 1.4.2 Software. Sphingolipid data were normalized to lipid phosphate as previously described (26). Briefly, samples were dried under air (10 PSI) and lipids were extracted using the method of Bligh and Dyer (27). Of importance for phosphate assay, only Kimble Chase disposable borosilicate tubes were used for minimal sample contamination. Organic phase was transferred to glass tubes and a known volume was separated to a new tube and dried at 80° C. Phosphate standards and dried samples were then heated with ashing buffer (water:10 N:70% [40:9:1]) at 160° C. overnight. Samples were then incubated with ammonium molybdate and ascorbic acid as previously described, and absorbance ([…]) was read using a SpectraMax.
CCRF-CEM cells were treated with drug/fatty acid vehicles (control), GT-11 (0.5 μM) alone, sphinganine (4 μM) alone or sphinganine (4 μM) plus GT-11 (0.5 μM) for six hours and subsequently prepared for sphingolipid analysis.
CCRF-CEM cells were treated with GT-11 (0.5 μM) alone, sphinganine (1 μM) alone or sphinganine (1 μM) plus GT-11 (0.5 μM) for six hours and prepared for quantitative analysis. DHCers were normalized to control and plotted as fold change (bar, z-axis). * indicates significance, with P<0.05. […] CCRF-CEM cells were treated with sphinganine (1 μM) plus GT-11 (0.5 μM) with and without specific solubilized fatty acids (carbon chain length (CX) and saturation (:X), Ex: C20:1=fatty acid with 20 carbons and one desaturation) for six hours and prepared for quantitative sphingolipid analysis. Dihydroceramides were normalized to control cells that received sphinganine plus GT-11 with no fatty acid and plotted as fold change (bar, z-axis). * indicates significance, with P<0.05.

[2] = system: intracellular sphingolipids, COG-LL-317; assay: LC/MS/MS analysis of intracellular sphingolipids, COG-LL-317; format: cell-based, human; settings: for increase in corresponding dihydroceramide over sphinganine+GT-11 alone: COG-LL-317, fatty acid with sphinganine+GT-11, six hours, P<0.05
Method: as §1, §2
Cells were treated for 48 hours with Sa (0-4 μM)+/−GT-11 (0.5 μM) with or without C18:0-, C22:0- or C22:1-fatty acids. Cytotoxicity was measured using DIMSCAN, and data was normalized to control and plotted as survival fraction (y-axis). Gray and white symbols represent long and very long chain fatty acids, respectively. Gray lines encompass data used for sphingolipid correlation analysis with cytotoxicity. Datum point, mean; error bar, SEM. […]
Cytotoxicity was measured using DIMSCAN, and data was normalized to control and plotted as survival fraction (y-axis).

[3] = fatty acid 5 μM in addition to sphinganine 1 μM plus GT-11 0.5 μM, six hours, P<0.001
[4] = fatty acid in addition to sphinganine, no GT-11, P<0.001

Row | SMILES | increase in C22:0-DHCer over sphinganine plus GT-11 alone [1, 3] [fold] | increase in C24:0-DHCer over sphinganine plus GT-11 alone [1, 3] [fold] | increase in corresponding dihydroceramide over sphinganine plus GT-11 alone [1] | increase in C22:0-Cer over sphinganine alone [1, 4] [fold] | increase in C24:0-Cer over sphinganine alone [1, 4] [fold] | increase of C22:0-dihydroceramide compared to 4-HPR alone ([2]; COG-LL-317, fatty acid with 4-HPR 1.1 μM, six hours, P<0.001) [fold] | increase of C22:0-dihydroceramide over sphinganine+GT-11 alone ([2]; COG-LL-317, fatty acid with sphinganine 1 μM plus GT-11 0.5 μM, six hours, P<0.003) [fold] | increase in corresponding dihydroceramide over sphinganine+GT-11 alone [2]
1 | CCCCCCCCCCCCCCCCCCCCCC(=O)O [C22:0-fatty acid] | 32 | 19 | significant increases | 13 | 4.6 | 11 | 13 | significant increases
2 | CCCCCCCC/C=C\CCCCCCCCCCCC(=O)O [C22:1-fatty acid] |  |  | significant increases |  |  |  |  | significant increases
